Here are results for ten molecules from patent US8642585B2, “Indanyloxydihydrobenzofuranylacetic acids” (Boehringer Ingelheim International GmbH, priority 2012, dated 2014).

Molecules are shown by their SMILES. pEC50: −log10 of the molar value.

The assay concerns the target human GPR40 receptor (Homo sapiens, UniProt O14842). The assay can be described thus: Assay I: IP1 accumulation (IPOne HTRF) in 1321N1 cells stably expressing human GPR40. The settings on record: 1321N1 cells expressing human GPR40, stimulation 1 hour at 37° C., 10% CO2, final LiCl 50 mM. The assay is classed as cell-based. The procedure:
IP1 accumulation measurements using the IPOne assay system—1321N1 cells stably expressing human GPR40 receptor (Euroscreen, Belgium) are seeded 24 h before the assay in black clear-bottom collagen-coated 384-well plates in culture medium containing 10% FCS, 1% Na-Pyruvate and 400 μg/mL G418. IP1 is assayed according to the Manufacturers description (Cisbio Bioassays, France). In brief, the assay is started by substitution of the culture medium by stimulation buffer (Hepes 10 mM, CaCl2 1 mM, MgCl2 0.5 mM, KCl 4.2 mM, NaCl 146 mM and glucose 5.5 mM, pH 7.4) without LiCl. Cells are stimulated for 1 hour at 37° C., 10% CO2 by addition of the compounds that are diluted in stimulation buffer containing LiCl yielding a final LiCl concentration of 50 mM. Assays are stopped by adding HTRF-conjugates (IP1-d2 and Anti-IP1 cryptate Tb) and lysis buffer, provided by the manufacturer. After an incubation time of 1 hour at room temperature plates are measured using an EnVision™, Perkin Elmer. The obtained fluorescence ratios at 665/615 nM are then used to calculate the pEC50 values using GraphPad Prism 5 (Graphpad Software Inc, USA) by interpolation using an IP1 reference curve and subsequent sigmoidal curve fitting allowing for a variable hill slope.

Sequence of human GPR40 receptor (O14842 whole entry): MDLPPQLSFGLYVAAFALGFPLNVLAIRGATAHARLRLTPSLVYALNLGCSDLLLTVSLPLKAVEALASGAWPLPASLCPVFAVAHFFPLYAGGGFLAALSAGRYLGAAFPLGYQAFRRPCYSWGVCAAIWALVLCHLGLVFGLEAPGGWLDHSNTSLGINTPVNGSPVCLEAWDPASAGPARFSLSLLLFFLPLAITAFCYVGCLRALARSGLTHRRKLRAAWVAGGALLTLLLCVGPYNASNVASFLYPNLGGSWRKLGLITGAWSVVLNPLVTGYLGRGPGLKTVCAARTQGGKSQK

`Cc1cc(OCC(N)=O)cc(C)c1-c1ccc(F)c2c1CC[C@H]2Oc1ccc2c(c1)OC[C@H]2CC(=O)O` [Example 14, 2-((S)-6-((R)-4-(4-(2-Amino-2-oxoethoxy)-2,6-dimethylphenyl)-7-fluoro-2,3-dihydro-1H-inden-1-yloxy)-2,3-dihydrobenzofuran-3-yl)acetic acid] gave a pEC50 of 7.85.
On to `Cc1cc(OCCS(C)(=O)=O)cc(C)c1-c1ccc(F)c2c1CC[C@H]2Oc1ccc2c(c1)OC[C@H]2CC(=O)O` [Example 6, 2-((S)-6-((R)-4-(2,6-Dimethyl-4-(2-(methylsulfonyl)ethoxy)phenyl)-7-fluoro-2,3-dihydro-1H-inden-1-yloxy)-2,3-dihydrobenzofuran-3-yl)acetic acid], for which the pEC50 was 7.66.
As to `CNC(=O)COc1cc(C)c(-c2ccc(F)c3c2CC[C@H]3Oc2ccc3c(c2)OC[C@H]3CC(=O)O)c(C)c1` [Example 12, 2-((S)-6-((R)-4-(2,6-Dimethyl-4-(2-(methylamino)-2-oxoethoxy)phenyl)-7-fluoro-2,3-dihydro-1H-inden-1-yloxy)-2,3-dihydrobenzofuran-3-yl)acetic acid], the pEC50 is 7.92.
The result for `Cc1cc(-c2ncco2)cc(C)c1-c1ccc(F)c2c1CC[C@H]2Oc1ccc2c(c1)OC[C@H]2CC(=O)O` [Example 18, 2-((S)-6-((R)-4-(2,6-Dimethyl-4-(oxazol-2-yl)phenyl)-7-fluoro-2,3-dihydro-1H-inden-1-yloxy)-2,3-dihydrobenzofuran-3-yl)acetic acid] reads 8.40.
Regarding `Cc1cc(-c2ccnn2C)cc(C)c1-c1ccc(F)c2c1CC[C@H]2Oc1ccc2c(c1)OC[C@H]2CC(=O)O` [Example 20, 2-((S)-6-((R)-4-(2,6-Dimethyl-4-(1-methyl-1H-pyrazol-5-yl)phenyl)-7-fluoro-2,3-dihydro-1H-inden-1-yloxy)-2,3-dihydrobenzofuran-3-yl)acetic acid], the pEC50 was 8.05.
On to `Cc1cc(OC2CCC(O)C2)cc(C)c1-c1ccc(F)c2c1CC[C@H]2Oc1ccc2c(c1)OC[C@H]2CC(=O)O` (stereo partly drawn) [Example 11, 2-((3S)-6-((1R)-7-Fluoro-4-(4-(3-hydroxycyclopentyloxy)-2,6-dimethylphenyl)-2,3-dihydro-1H-inden-1-yloxy)-2,3-dihydrobenzofuran-3-yl)acetic acid], for which the pEC50 is 8.30.
`Cc1cc(OCC2CCN(S(C)(=O)=O)CC2)cc(C)c1-c1ccc(F)c2c1CC[C@H]2Oc1ccc2c(c1)OC[C@H]2CC(=O)O` [Example 35, 2-((S)-6-((R)-4-(2,6-Dimethyl-4-((1-(methylsulfonyl)piperidin-4-yl)methoxy)phenyl)-7-fluoro-2,3-dihydro-1H-inden-1-yloxy)-2,3-dihydrobenzofuran-3-yl)acetic acid]: the pEC50 was 7.24.
With `Cc1cc(OCC2CCS(=O)(=O)C2)cc(C)c1-c1ccc(F)c2c1CC[C@H]2Oc1ccc2c(c1)OC[C@H]2CC(=O)O` (stereo partly drawn) [Example 27, 2-((3S)-6-((1R)-4-(2,6-Dimethyl-4-((1,1-dioxo-tetrahydrothiophen-3-yl)methoxy)phenyl)-7-fluoro-2,3-dihydro-1H-inden-1-yloxy)-2,3-dihydrobenzofuran-3-yl)acetic acid], the pEC50 is 8.05.
For `Cc1cc(O[C@H]2C[C@@H](N(C)S(C)(=O)=O)C2)cc(C)c1-c1ccc(F)c2c1CC[C@H]2Oc1ccc2c(c1)OC[C@H]2CC(=O)O` [Example 33, 2-((S)-6-((R)-4-(2,6-Dimethyl-4-((1s,3S)-3-(N-methylmethylsulfonamido)cyclobutoxy)phenyl)-7-fluoro-2,3-dihydro-1H-inden-1-yloxy)-2,3-dihydrobenzofuran-3-yl)acetic acid], the pEC50 was 7.92.
The same measure for `Cc1cc(C(N)=O)cc(C)c1-c1ccc(F)c2c1CC[C@H]2Oc1ccc2c(c1)OC[C@H]2CC(=O)O` [Example 60, 2-((S)-6-((R)-4-(4-Carbamoyl-2,6-dimethylphenyl)-7-fluoro-2,3-dihydro-1H-inden-1-yloxy)-2,3-dihydrobenzofuran-3-yl)acetic acid]: 7.59.
